Reference: patent US8257700B2, “Proteomic analysis of active multiple sclerosis lesions” (The Board of Trustees of the Leland Stanford Junior …, priority 2008, dated 2012)

Legend:
[1] = test system: MS relapses and active EAE; conditions: during MS relapses and active EAE; cited from earlier work
PAR-1 = target: T1, PAR-1 (Homo sapiens, UniProt P25116); conditions: cited from earlier work
T1 sequence (P25116 22-425): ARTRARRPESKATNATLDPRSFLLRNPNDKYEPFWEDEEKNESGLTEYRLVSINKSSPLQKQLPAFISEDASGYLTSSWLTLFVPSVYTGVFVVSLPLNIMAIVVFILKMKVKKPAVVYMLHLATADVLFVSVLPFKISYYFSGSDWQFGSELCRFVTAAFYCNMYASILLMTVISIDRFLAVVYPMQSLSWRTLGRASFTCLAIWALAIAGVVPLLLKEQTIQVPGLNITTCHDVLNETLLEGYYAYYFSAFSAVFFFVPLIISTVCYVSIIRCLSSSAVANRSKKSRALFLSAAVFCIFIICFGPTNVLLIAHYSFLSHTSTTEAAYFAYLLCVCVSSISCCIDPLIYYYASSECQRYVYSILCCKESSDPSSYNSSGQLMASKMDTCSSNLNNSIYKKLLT

aPTT = conditions: cited from earlier work; for aPTT (relative activity): relative to aPC-WT
EAE mice = experiment: EAE induced with PLP139-151 in SJL/J mice, daily clinical score; type: in vivo, mouse (SJL/J); conditions: for clinical status (mean clinical score), time of amelioration: recombinant human aPC variants 0.46 mg/kg daily i.v. from maximal paralysis until day 30, vs PBS
Description: EAE induction, treatment with hirudin, aPC (WT and mutants), proliferation assays, cytokine analysis and quantitative histopathology. Mice were maintained in the Research Animal Facility at Stanford University. EAE was induced in 7-8 week old SJL/J female mice by subcutaneous immunization with 100 μg PLP139-151 in emulsion. For hirudin or aPC treatment, EAE mice (n=10/group) were treated with daily intravenous injection of hirudin (10 mg/kg) or mouse recombinant aPC-WT (0.2 mg/kg) at the peak of disease and compared with PBS treated group. Mice were assessed daily for clinical signs of EAE and scored according to: 0, no clinical disease; 1, tail weakness; 2, hindlimb weakness; 3, complete hindlimb paralysis; 4, hindlimb paralysis and some forelimb weakness; 5, moribund or dead.
Recombinant human aPC-WT and mutants (aPC-L8W and aPC-K193E) were prepared as described by Grinnell et al (2007) Critical Care Medicine (suppl). These aPC variants have the following properties on aPTT and PAR-1 signaling function: aPC-WT: aPTT (relative activity)=1, PAR-1 (relative activity)=1, aPC-L8W: aPTT=1, PAR-1=0.02 and aPC-K193E: aPTT=0.03, PAR-1=1. EAE mice (n=7/group) were treated with daily intravenous injection of recombinant human aPC-WT, aPC-L8W, aPC-K193E (0.46 mg/kg) or PBS (control group) at the time of maximal paralysis and assessed daily until day 30.

[2] = test system: splenocytes and lymph node cells; experiment: In vitro proliferation (3H-thymidine) of splenocytes and lymph node cells from treated EAE mice, activated with PLP peptide; type: cell-based, mouse (SJL/J)
Description: (§1) In vitro immune cell proliferation and cytokine analysis were performed as previously described (Ousman et al. (2007) Nature 448, 474-9). Briefly, splenocytes and lymph node cells harvested from EAE experiments were cultured in flat-bottomed, 96-well plates at a concentration of 0.5×10^6 cells/well in stimulation media (RPMI 1640 supplemented with 2 mM L-glutamine, 1 mM sodium pyruvate, 0.1 mM non-essential amino acids, 100 U/ml^2 Penicillin, 0.1 mg/ml^2 streptomycin, 0.5 μM 2-mercaptoethanol and 10% fetal calf serum) and activated with PLP139-151 peptide (5-20 μg/ml). To determine proliferation rates, cultures were pulsed with (^3H)-Thymidine (1 μCi per well) following 72-hour culture and harvested 18 hours later onto filter paper. The counts per minute (cpm) of incorporated ^3H-Thymidine were read using a beta counter. Cytokine levels (IL-2, IL-4, IL-6, IL-10, IL-12p40, IL-17, IFN-γ, TNF) were measured from the supernatant of cultured cells using anti-mouse OPTEIA ELISA kits (BD Pharmigen).

[3] = Anti-hirudin antibodies in serum of treated EAE mice; type: in vivo, mouse; conditions: EAE mice treated with hirudin
[4] = test system: splenocytes and lymph node cells; experiment: Cytokine production (ELISA) of splenocytes and lymph node cells from treated EAE mice; type: cell-based, mouse (SJL/J)
Description: as §1

[5] = test system: brain and spinal cord of EAE mice; experiment: Quantitative histopathology: inflammatory foci in brain and spinal cord of EAE mice; type: in vivo, mouse (SJL/J)
Description: For histopathological analysis, brains and spinal cord of EAE mice were fixed in 10% formaldehyde. […] paraffin sections were stained with LFB and H&E and the number of inflammatory foci within the brain and spinal cord were quantified by a neuropathologist who was blinded to the treatment and clinical parameters of the mice.

rheumatoid arthritis = conditions: cited from earlier work
[6] = test system: primary peritoneal macrophages; experiment: Peritoneal macrophage activation with LPS, cytokine ELISA; type: cell-based, mouse (SJL/J); conditions: 30 nM recombinant murine aPC pre-treatment, LPS 100 ng/ml
Description: Primary peritoneal macrophages were isolated from naïve 8-9 weeks old SJL/J mice following intraperitoneal injection of thioglycollate (BD Diagnostic Systems) and cultured in complete medium (DMEM supplemented with 10% fetal bovine serum, 1 mM sodium pyruvate, […] and 0.1 mg/ml streptomycin). Cells (1×10^6 cells/ml) were treated with 30 nM recombinant murine aPC for 15 minutes, then activated with LPS 100 ng/ml (Sigma), harvested at different time points (15 min-72 hours), and cytokine levels were measured.

NF-κB signalling (IκB-α) = experiment: Western blot of IκB-α in T cells (NF-κB activation); type: cell-based, mouse (SJL/J); conditions: T cells treated with murine aPC, cell activation assay
Description: Western blot analysis. For NF-κB activation, total cell lysate from purified T cells treated with aPC were analyzed by SDS-PAGE, transferred to PVDF membrane, probed with antibodies against IκB-α, and β-actin and the signal was visualized by enhanced chemiluminescence.

primary astrocytes = experiment: Primary astrocyte activation with LPS, cytokine ELISA; type: cell-based, mouse (SJL/J); conditions: 30 nM recombinant murine aPC pre-treatment, LPS 100 ng/ml
Description: Astrocyte culture. Astrocytes were cultured from brain of one-day-old SJL/J pups as described previously. Briefly, the cerebral cortices from pups were minced, cells were disrupted by passing through a filter and cultured in complete DMEM. Purified astrocytes (50-80% confluent) were treated with 30 nM recombinant murine aPC for 15 minutes and activated with 100 ng/ml LPS (Sigma). Cells were harvested at 4, 24, 48 and 72-hours, and supernatant were analyzed by ELISA for cytokine production.

purified T cells = experiment: Purified T cell activation with CD3/CD28, cytokine ELISA; type: cell-based, mouse (SJL/J); conditions: 30 nM recombinant murine aPC pre-treatment, CD3/CD28 5 μg/ml
Description: In vitro Immune cell activation assays and cytokine analysis. T lymphocytes were isolated from pooled splenocytes and lymph node cells from 8 week-old naïve SJL/J mice by negative selection (Pan T cell isolation kit, Miltenyi Biotech). Cells were pre-treated with 30 nM recombinant murine aPC for 15 mins at 37° C. followed by activation with CD3/CD28 (5 μg/ml) coated on 12 well plates. Cells were cultured at 5×10^6 cells/ml concentration in stimulation media. Culture plates were harvested at different time points (15 min-96 hours) and cytokine levels were measured from culture supernatant by ELISA.

[7] = cells from hirudin-treated vs vehicle-treated mice
[8] = hirudin 10 mg/kg daily i.v. from peak of disease
[9] = cells from aPC-treated vs PBS-treated mice

Heparin
symptoms [1]: improve symptoms

aPC-L8W: recombinant human aPC mutant; retains anticoagulant properties but lacks PAR-1 signalling, defective EPCR interaction at L8
PAR-1 signalling (in words) (PAR-1): lacks PAR-1 signalling | anticoagulant properties (in words) (aPTT): retains anticoagulant properties | aPTT (relative activity) (aPTT): 1 | clinical status (mean clinical score), time of amelioration (EAE mice): significant amelioration early in the disease course (days 20-25)

aPC-WT: recombinant human activated protein C wild type
clinical status (mean clinical score), time of amelioration (EAE mice): improvement in the latter part of disease course (days 25-30)

aPC-K193E: recombinant human aPC mutant; mainly participates in PAR-1 signalling and lacks anticoagulant activities
PAR-1 signalling (in words) (PAR-1): mainly participates in PAR-1 signalling | anticoagulant properties (in words) (aPTT): lacks anticoagulant activities | aPTT (relative activity) (aPTT): 0.03 | clinical status (mean clinical score), time of amelioration (EAE mice): significant amelioration early in the disease course (days 20-25)

hirudin: thrombin inhibitor hirudin (Refludan, recombinant lepirudin, Berlex)
immune cell proliferation ([2]; cells from hirudin-treated vs PBS-treated mice, PLP activated): decreased immune cell proliferation | anti-hirudin antibodies in serum [3]: presence of anti-hirudin antibodies | IL4 production [4, 7]: no differences | IL-6 production [4, 7]: suppression | IL-10 production [4, 7]: no differences | IL-12 production [4, 7]: no differences | IL-17 production [4, 7]: suppression | interferon-γ (IFN-γ) production [4, 7]: no differences | tumor necrosis factor (TNF) production [4, 7]: suppression | disease course (EAE mice; [8]): no effect | relapse rates (EAE mice; [8]): no effect | disease severity (mean clinical score) (EAE mice; hirudin 10 mg/kg daily i.v. from peak of disease vs PBS): dramatic improvement of disease severity | time up to which amelioration of EAE was observed (EAE mice; hirudin treatment): ≤ 35 days | inflammatory foci in brains and spinal cords ([5]; hirudin-treated vs PBS): fewer inflammatory foci

CN(Cc1cnc2nc(N)nc(N)c2n1)c1ccc(C(=O)N[C@@H](CCC(=O)O)C(=O)O)cc1 [MTX, Methotrexate]
patients having some response (rheumatoid arthritis): 70% | onset of action (rheumatoid arthritis; patients): 4-6 weeks

aPC: recombinant murine activated protein C, provided by Lilly Research Laboratories
immune cell proliferation in splenocytes and lymph node cells [2, 9]: decreased immune cell proliferation | Th1 and Th17 cytokines [4, 9]: inhibition | relapse rates (EAE mice; recombinant murine aPC 0.2 mg/kg): no effect | disease severity (mean clinical score) (EAE mice; recombinant murine aPC 0.2 mg/kg daily i.v. from peak of disease vs PBS): significant amelioration of disease severity | IL6 production [6]: less | IL17 production [6]: less | inflammatory foci in the CNS tissue ([5]; aPC-treated vs PBS): fewer inflammatory foci | IκB breakdown (NF-κB signalling (IκB-α)): less IκB breakdown | IL6 production (primary astrocytes): less | IL17 production (primary astrocytes): less | IL17 levels (purified T cells): low levels
